These are literature values, as cited in patent US20120202839A1, “METHODS AND COMPOSITIONS FOR DETERRING ABUSE OF ORALLY ADMINISTERED PHARMACEUTICAL PRODUCTS” (priority 2004, published 2012).

The conditions of this data set: oral ingestion; typical threshold.

In the case of `O=S(=O)([O-])[O-].[Zn+2]` [ZINC SULFATE], the “amount ingested above which emesis is induced, typically” value is given as “more than 0.6 gm”.
